The test system of data set [1] is RHE tissues. Kind of data set: RHE irritation assessment Method 2: Mattek's MTT effective time (ET-50) assay. It counts as cell-based, human. From the text:
Method 1 was used to investigate the potential for alpha-hydroxylglycine (α-H-G) and L-homoserine (L-h-S) to cause skin irritation. The protocol is primarily designed and validated for single compounds rather than solutions. Therefore to provide further insight into the potential of N-hydroxyserine and N-hydroxylglycine to cause skin irritation a second protocol was investigated using Mattek's MTT effective time (ET-50) assay which is designed to test mixtures of compounds. In addition two commercially available amino acid related compound (L-serine and glycine) were selected and tested as comparators for N-hydroxyserine and N-hydroxylglycine. […] As a general guideline, the following groupings can be used in assigning expected in vivo irritancy responses based on the ET-50 results obtained: The irritation assessment of the solutions was performed using the protocol described below. Each of the test solutions; […] Damaged tissues were discarded. • (iii) The tissue were transferred into the assay medium and incubated at 37° C., 5% CO2 until the application of the test solutions; […] The working MTT solution was prepared using the following procedure: • (i) MTT concentrate was removed from the freezer and allowed to thaw. The concentrate was diluted with the MTT diluent solution (1 mL of concentrate to 4 mL of MTT diluent solution). • (ii) MTT solution from Step (i) was centrifuged at a g-force of 300 for 5 min to remove any particulates. • (iii) The supernatant of the MTT solution from Step (ii) was stored in the dark at 4° C. for a maximum period of 24 h and used as required. […] The plates were incubated for 3 h (+/−5 min) at 37° C., 5% CO2 and 95% humidified atmosphere. • (vi) The treated tissues were subsequently transferred into a new plate filled with 1 mL of extractant solution. • (vii) The plates were sealed using Parafilm® to stop evaporation and protected from light using foil before extract at 2-8° C. to minimise evaporation. • (viii) Following extraction the RHE tissue were removed from the wells and an additional 1 mL of extractant solution was added. Using a pipette the extraction solution was mixed and made visually homogenous. • (ix) The solution from Step (viii) was transferred in to n=3 wells (200 μL per well) using an automatic pipette of a 96 well plate and the optical density was measured at a wavelength of 570 nm.

A short description of data set [2]: Deliquescence relative humidity (DRH) of a saturated solution in a sealed vessel at 32° C. Particulars: saturated solution in water (1 mL), 24 hours. It is filed as physicochemical. The procedure: This experiment was to measure the deliquescence relative humidity (DRH) caused by a saturated amino acid solution in a sealed vessel at 32° C.; the lower the DRH, the greater the water holding capacity of the solution measured. Deliquescence relative humidity is the relative humidity at which the compound deliquesces, i.e. the relative humidity in which the compound absorbs so much water that it dissolves within the absorbed water.
The apparatus is maintained at 32° C. The temperature of 32° C. was chosen for being the temperature of outer stratum corneum. As the amino acids are to eventually be delivered to the outer layer of the skin, then the water holding capacity of these compounds at 32° C. is important.
The saturated solution is prepared as above by adding the amino acid to water (1 mL, 32° C.), whilst swirling. The total amino acid is weighed before adding to the water and the remaining amino acid so that the mass of compound used can be determined. The saturated solution (1 mL, 32° C.) is then transferred into the vial, again because of partial molar volume causing a change in volume by the addition of the amino acid to the water.
The temperature and % RH (% Relative Humidity) shown on the thermo-hygrometer are recorded every 30 minutes until the % RH remains constant. The temperature confirms that the temperature experienced by the sample is 32° C.

The subject of data set [3] is RHE tissues. Particulars: cited from earlier work.
Data set [4] relates to RHE tissues. Kind of data set: RHE irritation assessment Method 1: SkinEthic Skin Irritation Test-42 bis assay (MTT), plus 24 h contact time. It counts as cell-based, human. Conditions: 42 min and 24 h exposure, 5 and 1% w/v α-H-G, 10 and 1% w/v L-h-S in water. The text has this:
The purpose of this experiment was to investigate the potential of alpha-hydroxyglycine (α-H-G) and L-homoserine (L-h-S) to cause skin irritation. The method was based on the validated SOP for the “The SkinEthic Skin Irritation Test-42 bis assay” in accordance to OECD guideline Test No. 439: In Vitro Skin Irritation. The protocol is provided in Section 1.2. Further details on the method can be found in the SkinEthic™ RHE SOP, Version 2.1 (July 2009), SkinEthic skin irritation test-42 bis test method for the prediction of acute skin irritation of chemicals: 42 minutes application+42 hours post-incubation. Available at: [http://ecvam.jrc.ec.europa.eu].
In addition, a further experiment was performed where the contact time of the test solution with the tissue was increased to 24 h. Following which point an MTT assay was used to determine the tissue viability and the test solutions potential to cause irritation.
The following steps were completed on receipt of the tissues: • (i) Wells of 6-well plates were filled with 1 mL growth culture medium. • (ii) Tissue were removed from their packaging, cleaned to remove the transport agarose and inspected for signs of damage; damaged tissues were discarded. • (iii) The tissue were transferred into the growth culture medium then incubated at 37° C., 5% CO2 until application of the test solution.
1.2.1.1.6 Applications of 5 and 1% w/v α-H-G and 10 and 1% w/v L-h-S and Controls • (i) 16 μL±0.5 μL of the test solutions (5% w/v α-hydroxyglycine (α-H-G) in water, 1% w/v α-hydroxyglycine (α-H-G) in water, 10% w/v L-homoserine (L-h-S) in water, 1% w/v L-homoserine (L-h-S) in water) and negative (PBS) and positive (5% SDS) controls were dispensed onto the top of the epidermal tissue, using positive displacement pipette. […]

Data set [5] can be described thus: Snake study: water uptake into snake skin after treatment with amino acid solution. The arrangement: species or system Elaphe guttata, the American corn snake. Particulars: 24 h treatment with 1.33M amino acid solution, dried, then 40% RH.
Method: • All experiments were performed in triplicate (i.e. three separate solutions, three pieces of skin, one per solution). […] Each piece was weighed and placed directly into one the of the amino acid solutions, one piece of snake skin per solution. • After 1 hour, the snake skin was removed from the solution and blotted dry on filter paper. The weight of the snake skin was recorded before the same snake skin was returned to the amino acid solution. • After an additional 23 hours (24 hours in total), the snake skin was again blotted dry on filter paper and weighed. • The snake skin, now having absorbed the test amino acid, was then placed in a vacuum desiccator over silica (0% RH) for 48 hours before being weighed.
• A 10% w/w concentration solution of each compound is made by stirring the compound (100 mg) in water (1 mL). Three separate solutions of each compound are made separately so that the experiment can be carried out in triplicate simultaneously. […] The weight of the snake skin is recorded before the same snake skin is returned to the same compound solution. • After an additional 23 hours (24 hours in total), the snake skin is again blotted dry on filter paper and weighed. • The snake skin is then placed in a vacuum desiccator over silica (0% relative humidity (RH)) for 48 hours before being weighed. […]
Setting [6] is: mass used printed beside the name.

Where two headings read alike, the source gives them in different places.

Take `NCC(=O)O` [Glycine, reference compound]: in the data set on RHE tissues [1], the “expected in vivo irritancy from ET-50” value is “non-irritants” and the “impact on the viability of the RHE tissues” value is reported as “no significant impact”. Also, in data set [2] (setting [6]), the DRH is 79.13%.

As for `O=[N+]([O-])[O-].O=[N+]([O-])[O-].[Zn+2]` [Zinc Nitrate], the DRH in data set [2] (setting [6]) is given as 45.8%.

In data set [2] (setting [6]), `NC(N)=O` [Urea] gave a DRH of 75.03%.

As to Triton X-100 [1% Triton X-100], in the data set on RHE tissues [3], the “ET-50 (hrs), general guideline examples” value is given as 4-12 moderate to mild hrs.

For `NC(=O)C[C@H](N)C(=O)O` [Asparagine], the DRH in data set [2] (setting [6]) turned out to be 91.2%.

For the molecule `C[C@H](N)C(=O)O` [Alanine], the DRH in data set [2] (setting [6]) is 83.1%.

`C[C@@H](O)[C@H](N)C(=O)O` [Threonine]: the DRH in data set [2] (setting [6]) is recorded as 86.0%.

In data set [2] (setting [6]), `N[C@@H](CS)C(=O)O` [Cysteine] displayed a DRH of 89.6%.

Consider `N[C@@H](CC(=O)O)C(=O)O` [Aspartic acid], for which the DRH in data set [2] (setting [6]) was found to be 100.0%.

As to `NC(O)C(=O)O` (stereo not drawn) [α-hydroxyglycine, 2-Amino-2-hydroxyacetic acid], the results for the “skin irritation potential (viability below 50% of negative control = irritant)” value in the data set on RHE tissues [4] (listed as alpha-hydroxyglycine) and in the data set on RHE tissues [4] (listed as α-H-G) were “non-irritants” and “non-irritating”, respectively. Also, the “average percentage weight increase after 24 h at 40% RH” value in data set [5] is “particularly advantageous properties”. Moreover, the “ET-50 (exposure time to reduce viability to 50% of the control)” value in the data set on RHE tissues [1] (10% w/v N-H-S, 1% w/v N-H-G in water, dosing periods 2, 6 and 24 h) is less than 24 h. Further, the “expected in vivo irritancy from ET-50” value in the data set on RHE tissues [1] (10% w/v N-H-S, 1% w/v N-H-G, 10% w/v L-Serine, 10% w/v Glycine in water) was “non-irritant”. For the same molecule, the DRH worked out at 79.73% in data set [2] (setting [6]) and 79.7% in data set [2] (mass used printed beside the name, listed as Hydroxyglycine).

With `N[C@@H](CO)C(=O)O` [L-serine, reference compound], in the data set on RHE tissues [1], the “expected in vivo irritancy from ET-50” value is “non-irritants” and the “impact on the viability of the RHE tissues” value was “no significant impact”. This molecule displayed a DRH in data set [2] (setting [6]) of 82.53%.

In the case of `O=C(O)[C@@H]1CCCN1` [L-Proline], the DRH in data set [2] (setting [6]) was 44.6%.

For the molecule `N[C@H](CO)C(=O)O` [D-serine], the DRH turned out to be 85.40% in data set [2] (D-serine 0.95 g) and 82.13% in data set [2] (D-serine 1.2 g).

Turning to `O=[N+]([O-])O` [conc. Nitric acid, Nitric acid], in the data set on RHE tissues [3] (guideline groupings of the assay), the “ET-50 (hrs), general guideline examples” value is reported as <0.5 strong/severe, possible corrosive hrs.

Values taken from patent publication US20150328109A1, “DERMAL COMPOSITIONS CONTAINING UNNATURAL HYGROSCOPIC AMINO ACIDS” (MEDPHARM LIMITED, priority 2012, published 2015).
